Measured values: US12350277B2, “Compositions and methods of use for treating aberrant inflammation in peri-ocular secretory glands or at the ocular surface” (CS Pharmaceuticals Limited, priority 2017, dated 2025)
Where two headings read alike, the source gives them in different places. Blank lines part the entries; values can stand above or below the molecule they belong to.

Legend:
glucocorticoid receptor [1] = target: T1, glucocorticoid receptor (Homo sapiens, UniProt P04150); conditions: number of assays; cited from earlier work
T1 sequence (P04150 1-777): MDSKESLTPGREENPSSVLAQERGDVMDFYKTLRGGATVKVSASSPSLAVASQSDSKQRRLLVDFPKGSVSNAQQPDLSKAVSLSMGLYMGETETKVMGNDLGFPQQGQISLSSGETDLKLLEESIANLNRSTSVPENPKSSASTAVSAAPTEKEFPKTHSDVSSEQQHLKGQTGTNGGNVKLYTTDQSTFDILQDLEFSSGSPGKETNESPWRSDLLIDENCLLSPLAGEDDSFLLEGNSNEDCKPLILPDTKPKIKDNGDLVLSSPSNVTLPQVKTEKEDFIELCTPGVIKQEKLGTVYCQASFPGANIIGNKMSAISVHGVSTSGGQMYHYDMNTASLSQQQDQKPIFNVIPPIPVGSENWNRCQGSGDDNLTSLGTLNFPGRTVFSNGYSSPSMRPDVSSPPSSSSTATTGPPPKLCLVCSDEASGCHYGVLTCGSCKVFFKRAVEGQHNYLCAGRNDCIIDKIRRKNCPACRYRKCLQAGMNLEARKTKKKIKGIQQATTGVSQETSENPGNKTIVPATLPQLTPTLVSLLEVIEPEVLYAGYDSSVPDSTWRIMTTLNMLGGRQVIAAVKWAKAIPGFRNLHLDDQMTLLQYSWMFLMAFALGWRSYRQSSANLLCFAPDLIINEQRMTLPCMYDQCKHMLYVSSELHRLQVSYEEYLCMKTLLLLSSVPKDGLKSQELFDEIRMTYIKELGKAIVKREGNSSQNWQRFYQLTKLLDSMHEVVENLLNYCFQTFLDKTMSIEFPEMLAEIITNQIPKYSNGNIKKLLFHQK

[2] = plasma exposure after BID eyelid cream administration in minipigs; type: in vivo, Hanford minipigs
Experimental: (§1) To determine the ocular exposure and pharmacokinetics following topical cream administration to the eyelids, the cream containing 2% of compound of Formula I was applied BID to eyelids of 8 Hanford minipigs for 7 days and one additional application on day 8 for a total of 15 topical doses. After the last dose on day 8, two animals each were euthanized at 2, 4, 8, and 24 hours after the final dose, and eyes were collected for dissection into the following tissues and fluids: eyelids (including palpebral conjunctiva), bulbar conjunctiva, cornea, iris/ciliary body (ICB), and aqueous humor (AQH). Plasma was also collected (prior to dose application on Days 1 and 8, and prior to euthanasia). […] Meibum was believed to be only one lipid compartment in the eyelids that could act as a depot for lipophilic compounds. […] and other fatty tissues were others. Attempts to express meibum from the ducts, thereby rendering the eyelid itself unusable for further analysis, would have not permitted assessment of drug content in other potential lipid structures in the eyelids. Thus, the decision was made to assess drug exposure in the eyelid as an intact tissue to capture all potential drug depots.
Three different extraction and analytical methods were developed for the determination of the compound of Formula I in i) plasma and aqueous humor; ii) bulbar conjunctiva, cornea, ICB; iii) eyelids. Assay ranges were 0.1-100 ng/mL, 1-1000 ng/g, and 1-1000 ng/g, respectively. Briefly, analytical methods were as follows: i) plasma and aqueous humor standards were from minipig and rabbit, respectively; ii) bulbar conjunctiva, cornea, ICB standard was rabbit cornea; iii) eyelid standard was pig skin. The internal standard working solution for analytical purposes was comprised of 20.0 ng/mL ^13C2, ^15N-labeled compound of Formula I in acetonitrile with 1% formic acid (v/v) which was being added to each sample. […]

[3] = in vitro skin penetration, human cadaver skin in Franz-type diffusion cells; type: in vitro ADME
Experimental: An in vitro skin penetration model using human cadaver skin mounted in Franz-type diffusion cells (FDC) was chosen to determine the skin permeation of the compound of Formula I applied as a 2% cream to the epidermal surface. Transdermal flux into a receptor fluid was measured over a period of 46 hours after application of the formulations. At the end of the 46-hour incubation period, the skin was tape-stripped and heat separated based on an established method and the concentration of the compound of Formula I was measured in the residual epidermis and dermis. The applied formulations comprised of 2% w/w compound of Formula I, 46% w/w white petrolatum, 8% w/w mineral oil, 8% w/w propylene glycol, 6.6% w/w ST-cyclomethicone-SNF, 3.3% w/w emulsifier 10, 2% w/w ST-elastomer-10, 0.08% w/w methylparaben, 0.06% w/w sodium phosphate dibasic anhydrous, 0.05% w/w citric acid anhydrous, 0.02% w/w propylparaben, and q.s. purified water. Vehicle cream comprised of 48% w/w white petrolatum, 8% w/w mineral oil, 8% w/w propylene glycol, 6.6% w/w ST-cyclomethicone-SNF, 3.3% w/w emulsifier 10, 2% w/w ST-elastomer-10, 0.08% w/w methylparaben, 0.06% w/w sodium phosphate dibasic anhydrous, 0.05% w/w citric acid anhydrous, 0.02% w/w propylparaben, and q.s. purified water was also tested as a negative control. […]
A high performance liquid chromatography UV (“HPLC-UV”) analytical method and an LC-MS/MS method for detecting the compound of Formula I in the skin and in the receptor fluid samples, respectively, was implemented and employed mobile phases A (0.05 mL trifluoroacetic acid (TFA) in 1000 mL LC-MS grade water) and B (0.05 mL TFA in 1000 mL LC-MS grade acetonitrile). The lower level of quantification (LLOQ) for the compound of Formula I for the LC-MS/MS method was determined to be in the 6-10 ng/mL range.

[4] = ocular exposure and pharmacokinetics after BID eyelid cream administration in minipigs; type: in vivo, Hanford minipigs; conditions: for concentration at 8 h: 8 hours post final dose
Experimental: as §1
Three different extraction and analytical methods were developed for the determination of the compound of Formula I in i) plasma and aqueous humor; ii) bulbar conjunctiva, cornea, ICB; iii) eyelids. Assay ranges were 0.1-100 ng/mL, 1-1000 ng/g, and 1-1000 ng/g, respectively. Briefly, analytical methods were as follows: i) plasma and aqueous humor standards were from minipig and rabbit, respectively; ii) bulbar conjunctiva, cornea, ICB standard was rabbit cornea; iii) eyelid standard was pig skin. The internal standard working solution for analytical purposes was comprised of 20.0 ng/mL ^13C2, ^15N-labeled compound of Formula I in acetonitrile with 1% formic acid (v/v) which was being added to each sample. The tissue/fluid sample extraction procedure involved i) plasma/aqueous humor sample; ii) bulbar conjunctiva, cornea, ICB homogenization in acetonitrile; iii) eyelid digestion in 1:1 acetonitrile:ammonium hydroxide solution for 1.5 hours at 37° C. followed by acetonitrile addition, homogenization, and neutralization with formic acid; in all cases followed by addition of internal standard working solution, vortexing and centrifugation. Analysis of the samples was then carried out with LC-MS/MS, employing mobile phases A (Water with 0.1% formic acid) and B (acetonitrile with 0.1% formic acid).

glucocorticoid receptor [5] = target: T1, glucocorticoid receptor; conditions: variety of human in vitro assays; cited from earlier work
protein binding = type: in vitro ADME
[6] = solubility limit in receptor fluid; type: physicochemical; conditions: not told, aqueous with cosolvent or surfactant or cyclodextrin; phosphate-buffered saline pH 7.4 with 0.01 wt % Na azide and 1 wt % Brij 020
[7] = test system: models of lung inflammation; conditions: mouse, intratracheal dosing; cited from earlier work
[8] = test system: models of lung inflammation; conditions: rat, intratracheal dosing; cited from earlier work
NFκB pathway = conditions: A549, HeLa, MG63, 16HBE, and H9 cell lines; IL-1β / TNFα stimulation; cited from earlier work
[9] = test system: rabbits, atropine sulfate model of dry eye disease; assay: tear formation (Schirmer test) in atropine sulfate model of dry eye disease; type: in vivo; conditions: 30 μL eye drops four times per day after atropine sulfate 1%, seven days
Experimental: Next, the effect on tear formation of treatment with the compound of Formula I was examined. Rabbits were placed in a restraining device, and atropine sulfate 1% ophthalmic solution (30 μL) was instilled into the lower conjunctival sac of each eye four times per day. Fifteen minutes after the administration of each dose of atropine sulfate, each eye received 30 μL of eye drops containing the active ingredient, vehicle, or saline. Tear volume was then evaluated by the Schirmer test (FIG. 2). Schirmer strips were carefully placed in the posterior (i.e., temporal) lower fornix for 60 seconds, and the wetted area was read in millimeters as an index of tear volume.

[10] = test system: cynomolgus monkeys with unilateral (OS) ocular hypertension; assay: diurnal intraocular pressure during 4-week topical ocular treatment in ocular hypertensive monkeys; type: in vivo; conditions: 4 weeks
Text: To test the effect of the compound of Formula I on intraocular pressure (IOP), eight female cynomolgus monkeys with unilateral (OS) ocular hypertension induced by prior photocoagulation (laser) procedure to the trabecular meshwork (TM) were used at an age between 11 and 14 years at the start of the study. Laser induced ocular hypertension had been created at least 9 years earlier in the study animals. Animals and treatments were randomized according to a 4×4 replications Williams-type Latin Square design layout. Following random assignment of a number between 1 and 8, the eight primates were randomized two each into four treatment groups (A-D), with treatments masked for the investigators until all data had been collected and entered into a database. […]
Conscious animals were seated in custom-designed chairs, and […] was measured with a pneumatonometer (Classic 30, Reichert Depew) after topical application of proparacaine hydrochloride (0.13%) in both eyes (FIG. 1). […] During run-in and treatment periods, diurnal IOP was determined two times per week at approximately 8:30 am, 1 pm, and 5 pm. For each animal bilateral tonometry was followed immediately by topical instillation of the appropriate drug formulation A, B, C, or D. During washout periods, diurnal IOP was measured once per week in both eyes at approximately 8:30 am, 1 pm, and 5 pm.

[11] = 46 hours after 10 μL of 2% cream on epidermal surface, 6 replicates

highest plasma concentration ([2]; 24 hours following the final Day 8 dose): 2.22 ng/mL
systemic accumulation ([2]; after 7.5 days of multiple topical eyelid application): no or very low systemic accumulation
detection in transdermal receptor fluid ([3]; 4, 8, 24 and 46 hours after application of 2% cream): not in the transdermal receptor fluid
accumulated amount in the dermis [3, 11]: 0.73+/−0.21 μg/cm^2
accumulated amount in the epidermis [3, 11]: 2.89+/−0.32 μg/cm^2
highest mean concentration in eyelid tissue ([4]; 4 hours post final dose, 2% cream, 15 applications over 7.5 days): 30613 ng/g
concentration at 8 h ([4]; Hanford, minipig, aqueous humor, topical, BID, 2% cream, 15 applications over 7.5 days, read-out: mean concentration in aqueous humor): 5.81 ng/g
concentration at 4 h ([4]; Hanford, minipig, bulbar conjunctiva, topical, BID, 4 hours post final dose, 2% cream, 15 applications over 7.5 days): 1930 ng/g
concentration at 8 h ([4]; Hanford, minipig, cornea, topical, BID, 2% cream, 15 applications over 7.5 days, read-out: mean concentration in cornea): 452 ng/g
concentration at 24 h ([4]; Hanford, minipig, iris/ciliary body (ICB), topical, BID, 24 hours post final dose, 2% cream, 15 applications over 7.5 days): 20.5 ng/g
fraction unbound (protein binding): ~0.01
solubility [6]: ~35.8 µg/mL
effect on intraocular pressure (IOP) ([10]; 10 mg/mL suspension, 25 μL OU TID, topical to the eye): did not result in increased IOP
SMILES: C[C@@H]1C[C@H]2[C@@H]3C[C@H](F)C4=CC(=O)C=C[C@]4(C)[C@@]3(F)[C@@H](O)C[C@]2(C)[C@@]1(OC(=O)C1C(C)(C)C1(C)C)C(=O)OCC#N [compound of Formula I, 6α,9α-difluoro-11 β-hydroxy-16α-methyl-3-oxo-17α-(2,2,3,3-tetramethycyclopropylcarbonyl)oxy-androsta-1,4-diene-17β-carboxylic acid cyanomethyl ester]
glucocorticoid receptor-mediated transactivation (glucocorticoid receptor [1]): partial response
plasma exposure ([2]; up to 24 hours after last application, LLOQ 0.1 ng/mL): generally low or below the lower limit of quantification
exposure levels in each compartment over time ([4]; eyelids, conjunctiva, cornea, ICB, aqueous humor, post final peri-ocular dose): remained almost constant for up to 24 hours
glucocorticoid receptor-mediated transrepression activity (glucocorticoid receptor [5]): close to full agonism
anti-inflammatory activity in models of lung inflammation [7]: potent anti-inflammatory activity
anti-inflammatory activity in models of lung inflammation [8]: potent anti-inflammatory activity
transrepression of NFκB pathway activation (IL-6, IL-8 release) (NFκB pathway): potently and efficiently transrepress
tear formation (Schirmer test) [9]: prevented a decrease in tear formation similar to topical dexamethasone
IOP compared with dexamethasone treatment ([10]; 10 mg/mL suspension vs MAXIDEX 1 mg/mL, TID): significantly lower than dexamethasone treatment

SMILES: CCC(=O)O[C@]1(C(=O)SCF)[C@H](C)C[C@H]2[C@@H]3C[C@H](F)C4=CC(=O)C=C[C@]4(C)[C@@]3(F)[C@@H](O)C[C@@]21C [FP, fluticasone propionate, reference compound]
transrepression of NFκB pathway activation (IL-6, IL-8 release) (NFκB pathway): potently and efficiently transrepress
